From patent US20140309244A1, “NOVEL MICROBIOCIDES” (SYNGENTA PARTICIPATIONS AG, priority 2010, published 2014)

Legend:
[1] = system: Monographella nivalis (Microdochium nivale); assay: Monographella nivalis (Microdochium nivale) / liquid culture (foot rot cereals); format: cell-based; settings: PDB potato dextrose broth, 96-well plate, 24° C., 4-5 days after application, read-out: control of Monographella nivalis (inhibition of growth, photometric)
In short: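 Cryostored conidia in potato dextrose broth added to test compound in DMSO at 200 ppm. Incubated at 24° C; growth inhibition read photometrically 4-5 days after application.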

[2] = system: Phaeosphaeria nodorum (Septoria nodorum); assay: Phaeosphaeria nodorum (Septoria nodorum) / wheat / leaf disc preventative (glume blotch); format: in vivo; settings: Parastagonospora nodorum, foliar, wheat cv Kanzler leaf segments, inoculated 2 days after application, assessed 5-7 days after application, read-out: control of Phaeosphaeria nodorum (percent disease control compared to untreated)
[3] = system: Thanatephorus cucumeris (Rhizoctonia solani); assay: Thanatephorus cucumeris (Rhizoctonia solani) / liquid culture (foot rot, damping-off); format: cell-based; settings: liquid culture of mycelia fragments, PDB potato dextrose broth, 96-well plate, 24° C., 3-4 days after application, read-out: control of Thanatephorus cucumeris (inhibition of growth, photometric)
Description: Thanatephorus cucumeris (Rhizoctonia solani)/Liquid Culture (Foot Rot, Damping-Off): Mycelia fragments of a newly grown liquid culture of the fungus are directly mixed into nutrient broth (PDB potato dextrose broth). After placing a DMSO solution of the test compounds into a 96-well microtiter plate at an application rate of 200 ppm, the nutrient broth containing the fungal material was added. The test plates were incubated at 24° C. and the inhibition of growth was determined photometrically 3-4 days after application.

[4] = system: Mycosphaerella arachidis (Cercospora arachidicola); assay: Mycosphaerella arachidis (Cercospora arachidicola) / liquid culture (early leaf spot); format: cell-based; settings: PDB potato dextrose broth, 96-well plate, 24° C., 4-5 days after application, read-out: control of Mycosphaerella arachidis (inhibition of growth, photometric)
[5] = system: Glomerella lagenarium (Colletotrichum lagenarium); assay: Glomerella lagenarium (Colletotrichum lagenarium) / liquid culture (anthracnose); format: cell-based; settings: Colletotrichum orbiculare, PDB potato dextrose broth, 96-well plate, 24° C., 3-4 days after application, read-out: control of Glomerella lagenarium (inhibition of growth, photometric)
[6] = system: Gaeumannomyces graminis; assay: Gaeumannomyces graminis / liquid culture (take-all of cereals); format: cell-based; settings: liquid culture of mycelial fragments, PDB potato dextrose broth, 96-well plate, 24° C., 4-5 days after application, read-out: control of Gaeumannomyces graminis (inhibition of growth, photometric)
[7] = system: Magnaporthe grisea (Pyricularia oryzae); assay: whole plant or invertebrate; format: in vivo; settings: foliar, read-out: control of Magnaporthe grisea (percent disease control compared to untreated)
[8] = system: Botryotinia fuckeliana (Botrytis cinerea); assay: Botryotinia fuckeliana (Botrytis cinerea) / liquid culture (gray mould); format: cell-based; settings: Vogels broth, 96-well plate, 24° C., 3-4 days after application, read-out: control of Botryotinia fuckeliana (inhibition of growth, photometric)
[9] = system: Pyrenophora teres; assay: Pyrenophora teres / barley / leaf disc preventative (net blotch); format: in vivo; settings: foliar, barley cv Hasso leaf segments, inoculated two days after application, assessed 5-7 days after application, read-out: control of Pyrenophora teres (disease control compared to untreated)
[10] = system: Blumeria graminis f. sp. tritici (Erysiphe graminis f. sp. tritici); assay: Blumeria graminis f. sp. tritici (Erysiphe graminis f. sp. tritici) / wheat / leaf disc preventative (powdery mildew on wheat); format: in vivo; settings: foliar, wheat cv. Kanzler leaf segments, inoculated 1 day after application, assessed 6-8 days after application, read-out: control of Blumeria graminis (percent disease control compared to untreated)
[11] = system: Mycosphaerella graminicola (Septoria tritici); assay: Mycosphaerella graminicola (Septoria tritici) / liquid culture (Septoria blotch); format: cell-based; settings: Zymoseptoria tritici, PDB potato dextrose broth, 96-well plate, 24° C., 4-5 days after application, read-out: control of Mycosphaerella graminicola (inhibition of growth, photometric)
[12] = system: Puccinia recondita f. sp. tritici; assay: Puccinia recondita f. sp. tritici / wheat / leaf disc curative (brown rust); format: in vivo; settings: foliar, wheat cv Kanzler leaf segments, applied 1 day after inoculation, assessed 6-8 days after application, read-out: control of Puccinia recondita f. sp. tritici (percent disease control compared to untreated)
Description: Puccinia recondita f. sp. tritici/Wheat/Leaf Disc Curative (Brown Rust): Wheat leaf segments cv Kanzler were placed on agar in 24-well plates. The leaf segments were inoculated with a spore suspension of the fungus. The plates were stored in darkness at 19° C. and 75% relative humidity. The formulated test compound diluted in water was applied at an application rate of 200 ppm 1 day after inoculation.

[13] = system: Puccinia recondita f. sp. tritici; assay: Puccinia recondita f. sp. tritici / wheat / leaf disc preventative (brown rust); format: in vivo; settings: foliar, wheat cv Kanzler leaf segments, inoculated 1 day after application, assessed 7-9 days after application, read-out: control of Puccinia recondita f. sp. tritici (percent disease control compared to untreated)
Description: Puccinia recondita f. sp. tritici/Wheat/Leaf Disc Preventative (Brown Rust) Wheat leaf segments cultivated variety (cv) Kanzler were placed on agar in 24-well plates and sprayed with formulated test compound diluted in water at an application rate of 200 ppm. The leaf disks were inoculated with a spore suspension of the fungus 1 day after application. The inoculated leaf segments were incubated at 19° C. and 75% relative humidity under a light regime of 12/12 h (light/dark) in a climate cabinet and the activity of a compound was assessed as percent disease control compared to untreated when an appropriate level of disease damage appears in untreated check leaf segments (7-9 days after application). […].103

CO/N=C(\C)c1cccc(CCCO/N=C2\CCCc3cc4cc(Cl)ccc4nc32)n1 [P.96]
≥ 80%: inhibition at 200 ppm [1] | pest or weed control at 200 ppm [2] | inhibition at 200 ppm [3] | inhibition at 200 ppm [4] | inhibition at 200 ppm [5] | inhibition at 200 ppm [6] | pest or weed control at 200 ppm [7] | inhibition at 200 ppm [8] | pest or weed control at 200 ppm [9] | pest or weed control at 200 ppm [10] | inhibition at 200 ppm [11]

CO/N=C(\C)c1cccc(CCCO/N=C(\C)c2nc(C)cc(C)n2)n1 [P.62, 1-(6-(3-[1-(4,6-dimethyl-pyrimidin-2-yl)-eth-(E)-ylideneaminooxy]-propyl)-pyridin-2-yl)-ethanone O-methyl oxime]
≥ 80%: inhibition at 200 ppm [3] | inhibition at 200 ppm [4] | pest or weed control at 200 ppm [12] | pest or weed control at 200 ppm [7] | inhibition at 200 ppm [8] | inhibition at 200 ppm [11]

CO/N=C(\C)c1cccc(CCCO/N=C2\CCCc3cc4c(nc32)CCCC4)n1 [P.94]
≥ 80%: inhibition at 200 ppm [1] | pest or weed control at 200 ppm [2] | inhibition at 200 ppm [3] | inhibition at 200 ppm [4] | inhibition at 200 ppm [5] | pest or weed control at 200 ppm [12] | pest or weed control at 200 ppm [13] | inhibition at 200 ppm [6] | pest or weed control at 200 ppm [7] | inhibition at 200 ppm [8] | pest or weed control at 200 ppm [9] | pest or weed control at 200 ppm [10] | inhibition at 200 ppm [11]

CO/N=C(\C)c1cccc(CCCO/N=C2\CCCc3c2nc2ccccc2c3C2CC2)n1 [P.97]
≥ 80%: inhibition at 200 ppm [1] | pest or weed control at 200 ppm [2] | inhibition at 200 ppm [4] | inhibition at 200 ppm [5] | pest or weed control at 200 ppm [12] | pest or weed control at 200 ppm [13] | pest or weed control at 200 ppm [7] | inhibition at 200 ppm [8] | pest or weed control at 200 ppm [9] | pest or weed control at 200 ppm [10] | inhibition at 200 ppm [11]

CCc1c2c(nc3ccccc13)/C(=N/OCCCc1cccc(/C(C)=N/OC)n1)CCC2 [P.92]
≥ 80%: inhibition at 200 ppm [1] | pest or weed control at 200 ppm [2] | inhibition at 200 ppm [3] | inhibition at 200 ppm [4] | inhibition at 200 ppm [5] | pest or weed control at 200 ppm [12] | pest or weed control at 200 ppm [13] | pest or weed control at 200 ppm [7] | inhibition at 200 ppm [8] | pest or weed control at 200 ppm [9] | pest or weed control at 200 ppm [10] | inhibition at 200 ppm [11]

CO/N=C(\C)c1cccc(CCCO/N=C2\CCCc3c2nc2ccsc2c3C)n1 [P.88]
≥ 80%: inhibition at 200 ppm [1] | pest or weed control at 200 ppm [2] | inhibition at 200 ppm [3] | inhibition at 200 ppm [4] | inhibition at 200 ppm [5] | pest or weed control at 200 ppm [12] | pest or weed control at 200 ppm [13] | pest or weed control at 200 ppm [7] | inhibition at 200 ppm [8] | pest or weed control at 200 ppm [9] | pest or weed control at 200 ppm [10] | inhibition at 200 ppm [11]

CO/N=C(\C)c1cccc(CCCO/N=C2\CCCc3cc4ccccc4nc32)n1 [P.100]
≥ 80%: inhibition at 200 ppm [1] | pest or weed control at 200 ppm [2] | inhibition at 200 ppm [3] | inhibition at 200 ppm [4] | inhibition at 200 ppm [5] | pest or weed control at 200 ppm [12] | pest or weed control at 200 ppm [13] | inhibition at 200 ppm [6] | pest or weed control at 200 ppm [7] | inhibition at 200 ppm [8] | pest or weed control at 200 ppm [9] | pest or weed control at 200 ppm [10] | inhibition at 200 ppm [11]

CO/N=C(\C)c1cccc(CCCO/N=C2\CCCc3c2nc2cc(OC)c(OC)cc2c3C)n1 [P.82]
≥ 80%: inhibition at 200 ppm [1] | pest or weed control at 200 ppm [2] | inhibition at 200 ppm [3] | inhibition at 200 ppm [4] | inhibition at 200 ppm [5] | pest or weed control at 200 ppm [7] | inhibition at 200 ppm [8] | pest or weed control at 200 ppm [9] | pest or weed control at 200 ppm [10] | inhibition at 200 ppm [11]

CO/N=C(\C)c1cccc(CCCO/N=C2\CCCc3c2nc2ccc(Cl)cc2c3C)n1 [P.91]
≥ 80%: inhibition at 200 ppm [1] | pest or weed control at 200 ppm [2] | inhibition at 200 ppm [3] | inhibition at 200 ppm [4] | inhibition at 200 ppm [5] | pest or weed control at 200 ppm [13] | pest or weed control at 200 ppm [7] | inhibition at 200 ppm [8] | pest or weed control at 200 ppm [10] | inhibition at 200 ppm [11]

CO/N=C(\C)c1cccc(CCCO/N=C2\CCCc3c2nc2ncccc2c3C)n1 [P.72]
≥ 80%: pest or weed control at 200 ppm [2] | inhibition at 200 ppm [5] | pest or weed control at 200 ppm [12] | pest or weed control at 200 ppm [13] | pest or weed control at 200 ppm [7] | inhibition at 200 ppm [8] | pest or weed control at 200 ppm [9] | pest or weed control at 200 ppm [10] | inhibition at 200 ppm [11]
